From US6479531B1, “Gastrin and cholecystokinin receptor ligands” (James Black Foundation Limited, priority 1998, dated 2002)
Counter-ions that a name gives are not always drawn.

Biological target: T1, gastrin receptor (Rattus norvegicus, UniProt P30553)
T1 construct: The stomach was excised and flushed with ca. 1 ml of unbuffered physiological saline solution; from tissue; host or cells: isolated whole stomach of immature rats (ca. 21 days old)
T1 sequence (P30553 1-452): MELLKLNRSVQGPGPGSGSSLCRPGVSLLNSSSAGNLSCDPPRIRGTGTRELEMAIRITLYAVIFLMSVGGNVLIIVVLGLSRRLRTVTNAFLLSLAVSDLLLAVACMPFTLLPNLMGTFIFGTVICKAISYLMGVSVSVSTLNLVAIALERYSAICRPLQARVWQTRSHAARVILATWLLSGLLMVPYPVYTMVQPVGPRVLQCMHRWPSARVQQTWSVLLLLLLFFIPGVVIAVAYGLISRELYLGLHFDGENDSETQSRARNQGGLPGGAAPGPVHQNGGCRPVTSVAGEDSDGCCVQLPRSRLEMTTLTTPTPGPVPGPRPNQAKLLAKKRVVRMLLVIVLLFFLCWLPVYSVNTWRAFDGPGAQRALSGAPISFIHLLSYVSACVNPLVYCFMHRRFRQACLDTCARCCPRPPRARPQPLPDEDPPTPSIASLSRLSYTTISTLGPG
Experiment: gastrin antagonist activity in immature rat stomach assay (pentagastrin dose-response, acid secretion)
Settings: isolated immature rat stomach, cumulative pentagastrin dose-response curves, read-out: Gastrin pKb (converted)
Protocol: The compounds of the examples were also tested for gastrin antagonist activity in an immature rat stomach assay. The procedure was as follows:
The oesophagus of immature rats (33-50 g, ca. 21 days old) was ligated at the level of the cardiac sphincter and the duodenal sphincter was cannulated. The stomach was excised and flushed with ca. 1 ml of unbuffered physiological saline solution. The fundus was punctured and cannulated. A further 4-5 ml of unbuffered solution was flushed through the stomach to ensure the preparation was not leaking. The stomach was lowered into a jacketed organ bath containing 40 ml of buffered solution containing 3×10^−8 M 5-methylfurmethide, maintained at 37° and gassed vigorously with 95% O2/5% CO2. The stomach was continuously perfused at a rate of 1 ml min^−1 with unbuffered solution gassed with 100% O2 with the perfusate passing over an internally referenced pH-electrode fixed 12 cm above the stomach.
After 120 min of stabilisation the drugs were added directly to the serosal solution in the organ bath and after a further 60 min cumulative pentagastrin dose-response curves were started. Changes in acid secretion were monitored and the curves analysed according to Black et al., Br. J. Pharmacol., 1985, 86, 581.

Row | Kb [nM] | Structure (SMILES)
1 | 1.38 | O=C(O)c1cccc(NC(=O)c2nc(C3C4CCC3CC4)[nH]c2COC23CC4CC(CC(C4)C2)C3)c1 (centres unmarked) [Example 232, 3-{[5-(Adamantan-1-yloxymethyl)-2-bicyclo[2.2.1]hept-7-yl-1H-imidazole-4-carbonyl]-amino}-benzoic Acid]
2 | 70.8 | O=C(O)c1cccc(NC(=O)c2nc(C3CCOCC3)[nH]c2COC23CC4CC(CC(C4)C2)C3)c1 [Example 233, 3-{[5-(Adamantan-1-yloxymethyl)-2-(tetrahydro-pyran-4-yl)-1H-imidazole-4-carbonyl]-amino}-benzoic Acid]
3 | 204 | O=C(O)CCc1cccc(NC(=O)c2nc(C3CCCCC3)[nH]c2CCC23CC4CC(CC(C4)C2)C3)c1 [Example 258, 3-(3-{[5-(2-Adamantan-1-yl-ethyl)-2-cyclohexyl-1H-imidazole-4-carbonyl]-amino}-phenyl)-propionic Acid Trifluoroacetic Acid Salt]
4 | 70.8 | O=C(O)/C=C/c1cccc(NC(=O)c2nc(C3CCCCC3)[nH]c2CCC23CC4CC(CC(C4)C2)C3)c1 [Example 259, trans-3-(3-{[5-(2-Adamantan-1-yl-ethyl)-2-cyclohexyl-1H-imidazole-4-carbonyl]-amino}-phenyl)-acrylic Acid]
5 | 75.9 | O=C(O)CNC(=O)c1cccc(NC(=O)c2nc(C3CCCCC3)[nH]c2CCC23CC4CC(CC(C4)C2)C3)c1 [Example 263, (3-{[5-(2-Adamantan-1-yl-ethyl)-2-cyclohexyl-1H-imidazole-4-carbonyl]-amino}-benzoylamino)-acetic Acid]
6 | 112 | O=C(O)CC(=O)Nc1cccc(NC(=O)c2nc(C3CCCCC3)[nH]c2CCC23CC4CC(CC(C4)C2)C3)c1 [Example 267, N-(3-{[5-(2-Adamantan-1-yl-ethyl)-2-cyclohexyl-1H-imidazole-4-carbonyl]-amino}-phenyl)-malonamic Acid]
7 | 224 | O=C(Nc1cccc(S(=O)(=O)O)c1)c1nc(C2CCCCC2)[nH]c1CCC12CC3CC(CC(C3)C1)C2 [Example 268, 3-{[5-(2-Adamantan-1-yl-ethyl)-2-cyclohexyl-1H-imidazole-4-carbonyl]-amino}-benzenesulfonic Acid]
8 | 933 | O=C(O)C=Cc1cc(NC(=O)c2nc(C3CCCCC3)[nH]c2CCC23CC4CC(CC(C4)C2)C3)ccc1Cl [Example 269, 3-(5-{[5-(2-Adamantan-1-yl-ethyl)-2-cyclohexyl-1H-imidazole-4-carbonyl]-amino}-2-chloro-phenyl)-acrylic Acid]

The remaining lines, values behind:

Row | Structure (SMILES) | Kb [nM]
9 | Cc1c(NC(=O)c2nc(C34CCC(CC3)CC4)[nH]c2COC23CC4CC(CC(C4)C2)C3)cccc1C(=O)O [Example 222, 3-{[5-(Adamantan-1-yloxymethyl)-2-bicyclo[2.2.2]oct-1-yl-1H-imidazole-4-carbonyl]-amino}-2-methyl-benzoic Acid] | 20.4
10 | O=C(O)c1cc(NC(=O)c2nc(C34CCC(CC3)CC4)[nH]c2COC23CC4CC(CC(C4)C2)C3)ccc1F [Example 223, 5-{[5-(Adamantan-1-yloxymethyl)-2-bicyclo[2.2.2]oct-1-yl-1H-imidazole-4-carbonyl]-amino}-2-fluoro-benzoic Acid] | 0.776
11 | O=C(O)c1cccc(NC(=O)c2nc(C34C=CC(CC3)CC4)[nH]c2COC23CC4CC(CC(C4)C2)C3)c1 [Example 225, 3-{[5-(Adamantan-1-yloxymethyl)-2-bicyclo[2.2.2]oct-2-en-1-yl-1H-imidazole-4-carbonyl]-amino}-benzoic Acid] | 0.661
12 | Cc1cc(C)c(-c2nc(C(=O)Nc3cccc(C(=O)O)c3)c(COC34CC5CC(CC(C5)C3)C4)[nH]2)c(C)c1 [Example 226, 3-{[5-(Adamantan-1-yloxymethyl)-2-(2,4,6-trimethyl-phenyl)-1H-imidazole-4-carbonyl]-amino}-benzoic Acid] | 13.5
13 | Cc1cc(C)c(-c2nc(C(=O)Nc3cccc(CC(=O)O)c3)c(COC34CC5CC(CC(C5)C3)C4)[nH]2)c(C)c1 [Example 227, (3-{[5-(Adamantan-1-yloxymethyl)-2-(2,4,6-trimethyl-phenyl)-1H-imidazole-4-carbonyl]-amino}-phenyl)-acetic Acid] | 52.5
14 | O=C(O)c1cccc(NC(=O)c2nc(C3CCCCCC3)[nH]c2COC23CC4CC(CC(C4)C2)C3)c1 [Example 228, 3-{[5-(Adamantan-1-yloxymethyl)-2-cycloheptyl-1H-imidazole-4-carbonyl]-amino}-benzoic Acid] | 0.724
15 | O=C(O)Cc1cccc(NC(=O)c2nc(C3CCCCCC3)[nH]c2COC23CC4CC(CC(C4)C2)C3)c1 [Example 229, (3-{[5-(Adamantan-1-yloxymethyl)-2-cycloheptyl-1H-imidazole-4-carbonyl]-amino}-phenyl)-acetic Acid] | 35.5
16 | O=C(O)c1cccc(NC(=O)c2nc(C3CCC=CCC3)[nH]c2COC23CC4CC(CC(C4)C2)C3)c1 [Example 230, 3-{[5-(Adamantan-1-yloxymethyl)-2-cyclohept-4-enyl-1H-imidazole-4-carbonyl]-amino}-benzoic Acid] | 6.17
17 | CCOC(=O)Cn1c(-c2ccccc2C)nc(C(=O)Nc2cccc(C(=O)O)c2)c1CCC12CC3CC(CC(C3)C1)C2 [Example 250, 3-{[5-(2-Adamantan-1-yl-ethyl)-1-ethoxycarbonylmethyl-2-o-tolyl-1H-imidazole-4-carbonyl]-amino}-benzoic Acid] | 186
18 | CC(C)(C(=O)O)c1cccc(NC(=O)c2nc(C3CCCCC3)[nH]c2CCC23CC4CC(CC(C4)C2)C3)c1 [Example 256, 2-(3-{[5-(2-Adamantan-1-yl-ethyl)-2-cyclohexyl-1H-imidazole-4-carbonyl]-amino}-phenyl)-2-methyl-propionic Acid] | 708
19 | O=C(O)CNS(=O)(=O)c1cccc(NC(=O)c2nc(C3CCCCC3)[nH]c2CCC23CC4CC(CC(C4)C2)C3)c1 [Example 262, (3-{[5-(2-Adamantan-1-yl-ethyl)-2-cyclohexyl-1H-imidazole-4-carbonyl]-amino}-benzenesulfonylamino)-acetic Acid] | 224
20 | CN(CC(=O)O)C(=O)c1cccc(NC(=O)c2nc(C3CCCCC3)[nH]c2CCC23CC4CC(CC(C4)C2)C3)c1 [Example 266, [(3-{[5-(2-Adamantan-1-yl-ethyl)-2-cyclohexyl-1H-imidazole-4-carbonyl]-amino}-benzoyl)-methyl-amino]-acetic Acid] | 19.1
21 | O=C(O)Cc1c(F)ccc(NC(=O)c2nc(C3CCCCC3)[nH]c2CCC23CC4CC(CC(C4)C2)C3)c1F [Example 270, (3-{[5-(2-Adamantan-1-yl-ethyl)-2-cyclohexyl-1H-imidazole-4-carbonyl]-amino}-2,6-difluoro-phenyl)-acetic Acid] | 195
22 | O=C(O)CCc1cc(NC(=O)c2nc(C3CCCCC3)[nH]c2CCC23CC4CC(CC(C4)C2)C3)ccc1Cl [Example 271, 3-(5-{[5-(2-Adamantan-1-yl-ethyl)-2-cyclohexyl-1H-imidazole-4-carbonyl]-amino)-2-chloro-phenyl)-propionic Acid] | 355
23 | C[C@H](NC(=O)c1cccc(NC(=O)c2nc(C3CCCCC3)[nH]c2CCC23CC4CC(CC(C4)C2)C3)c1)C(=O)O [Example 272, (S)-2-(3-{[5-(2-Adamantan-1-yl-ethyl)-2-cyclohexyl-1H-imidazole-4-carbonyl]-amino}-benzoylamino)-propionic Acid] | 186
